Experimental data: patent US12653192B2, “Pesticidal compositions” (SYNGENTA CROP PROTECTION AG, priority 2021, dated 2026)
Read-outs that look alike come from different tables or passages of the source.

Format: physicochemical
Description: The percentage amount of spiropidion remaining at each time interval during the high temperature storage testing was compared to an identical sample stored at −18° C. (100%=amount of spiropidion in the −18° C. sample at respective time interval).

chemical degradation of the active ingredient spiropidion: only minimal chemical degradation
% Spiropidion remaining (1 month): 99%
% Spiropidion remaining (12 months): 98%
Compound: CCOC(=O)OC1=C(c2c(C)cc(Cl)cc2C)C(=O)N(C)C12CCN(OC)CC2 [Spiropidion, [3-(4-chloro-2,6-dimethyl-phenyl)-8-methoxy-1-methyl-2-oxo-1,8-diazaspiro[4.5]dec-3-en-4-yl]ethyl carbonate]
